The values below come from article PMC10758931 (RSC Advances, 2024).

Converted amounts (≈) assume the structure as drawn.

One data set has as its system MCF-7 cell line. Nature of the data set: Cytotoxic activity. To be noted: for CC50: Homo sapiens, MCF7, read-out: LC50, MCF-7 cell line; for SI (Selectivity index = LC50 value normal cell/LC50 value cancer cell): Vero / MCF-7. Type of data set: cell-based.
The next data set concerns normal Vero cell line. As to the kind of experiment: Cytotoxic activity. To be noted: MTT, mean ± standard error of three experiments. It is filed as cell-based.

As for `Cc1nn(-c2ccccc2)c2c1C(c1c[nH]c3ccccc13)N(C(=O)c1ccncc1)N2` (stereo not drawn) [Compound 1h], in the data set on MCF-7 cell line, the CC50 was 21.43 ± 0.03 µg/mL (≈ 51 µM).
For `COc1cccc2c1C(=O)c1c(O)c3c(c(O)c1C2=O)C[C@@](O)(C(=O)CO)C[C@@H]3O[C@H]1C[C@H](N)[C@H](O)[C@H](C)O1` [Doxorubicin, doxorubicin, reference compound], in the data set on MCF-7 cell line, the CC50 is 0.65 ± 0.01 µg/mL (≈ 1.2 µM) and the “SI (Selectivity index = LC50 value normal cell/LC50 value cancer cell)” value amounted to 32.38.
For the compound `CC(C)=CCCC(C)=CC1c2c(C)nn(-c3ccccc3)c2NN1C(=O)c1ccncc1` (stereo not drawn) [Compound 1g], in the data set on MCF-7 cell line, the CC50 came out at 30.82 ± 0.04 µg/mL (≈ 72.1 µM).
As to `Cc1nn(-c2ccccc2)c2c1C(c1ccc([N+](=O)[O-])cc1)N(C(=O)c1ccncc1)N2` (stereo not drawn) [Compound 1d], in the data set on MCF-7 cell line, the CC50 worked out at 91.1 ± 0.06 µg/mL (≈ 214 µM) and the “SI (Selectivity index = LC50 value normal cell/LC50 value cancer cell)” value worked out at 0.91.
In the same order, the values of `Cc1nn(-c2ccccc2)c2c1C(c1cncs1)N(C(=O)c1ccncc1)N2` (stereo not drawn) [Compound 1k] are 62.34 ± 0.07 µg/mL (≈ 160 µM) and 1.25.
On the same counts, the results for `Cc1nn(-c2ccccc2)c2c1C(c1ccccn1)N(C(=O)c1ccncc1)N2` (stereo not drawn) [Compound 1j] are 57.34 ± 0.08 µg/mL (≈ 150 µM) and 1.45.
On the same counts, the results for `Cc1nn(-c2ccccc2)c2c1C(c1ccc(Cl)cc1)N(C(=O)c1ccncc1)N2` (stereo not drawn) [Compound 1b] are 22.1 ± 0.04 µg/mL (≈ 53.1 µM) and 2.95.
In the case of `Cc1nn(-c2ccccc2)c2c1C(c1ccc(O)cc1)N(C(=O)c1ccncc1)N2` (stereo not drawn) [Compound 1c], in the data set with MCF-7 cell line, the CC50 was determined as 70.1 ± 0.05 µg/mL (≈ 176 µM) and the “SI (Selectivity index = LC50 value normal cell/LC50 value cancer cell)” value stood at 1.05.
Consider `Cc1nn(-c2ccccc2)c2c1C(c1ccco1)N(C(=O)c1ccncc1)N2` (stereo not drawn) [Compound 1i], for which the CC50 with MCF-7 cell line amounted to 26.66 ± 0.05 µg/mL (≈ 71.8 µM).
In the case of `COc1ccc(C2c3c(C)nn(-c4ccccc4)c3NN2C(=O)c2ccncc2)cc1` (stereo not drawn) [Compound 1e], in the data set on MCF-7 cell line, the CC50 stood at 23.62 ± 0.02 µg/mL (≈ 57.4 µM) and the “SI (Selectivity index = LC50 value normal cell/LC50 value cancer cell)” value came out at 3.36.
As for “(3-(4-chlorophenyl)-4-methyl-6-phenyl pyrazolo[3,4-c]pyrazol-2(1H,3H,6H)-yl)(pyridin-4-yl)methanone [Compound 1a]”, the “LC50, MCF-7 cell line” value in the data set with MCF-7 cell line (MCF-7, MTT, mean ± standard error of three experiments) turned out to be 78.10 ± 0.02 µg/mL. Also, in the data set on normal Vero cell line, the “LC50, Vero” value was found to be 55.02 ± 0.11 µg/mL.
Take `Cc1nn(-c2ccccc2)c2c1C(c1ccc(N(C)C)cc1)N(C(=O)c1ccncc1)N2` (stereo not drawn) [Compound 1f]: in the data set with MCF-7 cell line, the CC50 is 19.92 ± 0.01 µg/mL (≈ 46.9 µM) and the “SI (Selectivity index = LC50 value normal cell/LC50 value cancer cell)” value was found to be 4.12.
